Tests used:
Experiment in all cases: relative viability (nuclei count vs DMSO), 5 days (fraction); higher = more cells survive
Bortezomib + Phenformin = compound: CC(C)C[C@H](NC(=O)[C@H](Cc1ccccc1)NC(=O)c1cnccn1)B(O)O [Bortezomib] + N=C(N)NC(=N)NCCc1ccccc1 [Phenformin] (partner 250 µM)
Method in brief: (§1)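 The day after seeding in 1536-well plates, lung cancer cell lines were treated by pin tool with a single drug, or with a fixed anchor-drug dose together with five library-drug doses (not always all listed) in √10 steps. After 5 days, a combined fix-and-stain solution (final 0.05% Triton X-100, 1% formaldehyde, 1 ug/ml Hoechst) was added. Nuclei counted on 4× images gave relative viability as treated counts over vehicle counts, reported as the median of duplicate plates.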

Obatoclax + Palbociclib = compound: COC1=CC(c2cc3ccccc3[nH]2)=N/C1=C\c1[nH]c(C)cc1C [Obatoclax] + CC(=O)c1c(C)c2cnc(Nc3ccc(N4CCNCC4)cn3)nc2n(C2CCCC2)c1=O [Palbociclib] (partner 0.5 µM)
Method in brief: as §1

[1] = compound: CC1=CC(=NN1)NC2=CC(=NC(=N2)/C=C/C3=CC=CC=C3)N4CCN(CC4)C + CC(C)C[C@H](NC(=O)[C@H](Cc1ccccc1)NC(=O)c1cnccn1)B(O)O [Bortezomib] (partner 0.002 µM)
Method in brief: as §1

Obatoclax + Crizotinib = compound: COC1=CC(c2cc3ccccc3[nH]2)=N/C1=C\c1[nH]c(C)cc1C [Obatoclax] + C[C@@H](Oc1cc(-c2cnn(C3CCNCC3)c2)cnc1N)c1c(Cl)ccc(F)c1Cl [Crizotinib] (partner 1 µM)
Method in brief: as §1

Row | Cell Line | relative viability (Bortezomib + Phenformin; first compound 0.0002 µM) | relative viability (Bortezomib + Phenformin; first compound 0.000632 µM) | relative viability (Bortezomib + Phenformin; first compound 0.002 µM) | relative viability (Bortezomib + Phenformin; first compound 0.006325 µM) | relative viability (Bortezomib + Phenformin; first compound 0.02 µM) | relative viability (Obatoclax + Palbociclib; first compound 0.01 µM) | relative viability (Obatoclax + Palbociclib; first compound 0.03162 µM) | relative viability (Obatoclax + Palbociclib; first compound 0.1 µM) | relative viability (Obatoclax + Palbociclib; first compound 0.3162 µM) | relative viability (Obatoclax + Palbociclib; first compound 1 µM) | relative viability ([1]; first compound 0.08 µM) | relative viability ([1]; first compound 0.253 µM) | relative viability ([1]; first compound 0.8 µM) | relative viability ([1]; first compound 2.53 µM) | relative viability ([1]; first compound 8 µM) | relative viability (Obatoclax + Crizotinib; first compound 0.01 µM) | relative viability (Obatoclax + Crizotinib; first compound 0.03162 µM) | relative viability (Obatoclax + Crizotinib; first compound 0.1 µM) | relative viability (Obatoclax + Crizotinib; first compound 0.3162 µM) | relative viability (Obatoclax + Crizotinib; first compound 1 µM)
1 | UMC-11 | 0.371 | 0.313 | 0.333 | 0.292 | 0.236 | 0.373 | 0.346 | 0.33 | 0.322 | 0.373 | 0.718 | 0.726 | 0.636 | 0.12 | 0.08 | 0.671 | 0.615 | 0.53 | 0.682 | 0.346
2 | HCC-827 | 0.428 | 0.379 | 0.442 | 0.192 | 0.101 | 0.475 | 0.436 | 0.531 | 0.407 | 0.482 | 1.03 | 1.13 | 0.951 | 0.923 | 0.641 | 0.86 | 0.847 | 0.957 | 0.876 | 0.772
3 | NCI-H1993 | 0.489 | 0.458 | 0.512 | 0.419 | 0.464 | 0.703 | 0.611 | 0.692 | 0.693 | 0.686 | 1.08 | – | 1.2 | 0.781 | 0.391 | 0.922 | 0.916 | 1.02 | 0.932 | 0.986
4 | NCI-H647 | 0.479 | 0.444 | 0.267 | 0.0466 | 0.0232 | 0.458 | 0.321 | 0.398 | 0.151 | 0.0783 | 0.807 | 1.1 | 0.957 | 0.068 | 0.0571 | 0.997 | 1.13 | 0.762 | 0.286 | 0.133
5 | NCI-H460 | 0.347 | 0.526 | 0.554 | 0.0373 | 0.0212 | 0.153 | 0.14 | 0.201 | 0.055 | 0.0295 | 1.07 | 1.1 | 1 | 0.0197 | 0.0105 | 0.727 | 0.716 | 0.605 | 0.244 | 0.0446
6 | EMC-BAC-2 | 0.551 | 0.459 | 0.477 | 0.209 | 0.211 | 0.502 | 0.494 | 0.474 | 0.556 | 0.432 | 1.05 | 1.1 | 1.01 | 0.813 | 0.135 | 0.777 | 0.725 | 0.738 | 0.745 | 0.634
7 | NCI-H23 | 0.79 | 0.652 | 0.785 | 0.277 | 0.114 | 0.49 | 0.548 | 0.496 | 0.475 | 0.39 | 0.909 | 0.949 | 0.826 | 0.196 | 0.139 | 0.555 | 0.507 | 0.469 | 0.527 | 0.282
8 | A-427 | 0.253 | 0.246 | 0.339 | 0.212 | 0.11 | 0.54 | 0.511 | 0.419 | 0.517 | 0.462 | 1.1 | 1.06 | 1.08 | 0.635 | 0.361 | 0.958 | 0.792 | 0.802 | 0.999 | 0.968
9 | ABC-1 | 0.231 | 0.227 | 0.202 | 0.186 | 0.175 | 0.838 | 0.717 | 0.595 | 0.609 | 0.454 | 0.418 | 0.268 | 0.303 | 0.257 | 0.205 | 1.2 | 1.18 | 1.6 | 1.06 | 0.723
10 | NCI-H322M | 0.807 | – | 0.748 | 0.295 | 0.322 | 0.491 | 0.485 | 0.58 | 0.501 | 0.452 | 1.14 | 1.24 | 1.17 | 1.1 | 0.258 | 0.822 | 0.932 | 0.845 | 1.01 | 0.96
11 | COR-L23 | 0.466 | 0.429 | 0.4 | 0.0535 | 0.0571 | 0.306 | 0.303 | 0.228 | 0.128 | 0.122 | 0.972 | 1.29 | 1 | 0.196 | 0.0895 | 0.632 | 0.696 | 0.635 | 0.212 | 0.174
12 | NCI-H2085 | 0.757 | 0.826 | 0.693 | 0.318 | 0.16 | 0.472 | 0.45 | 0.462 | 0.482 | 0.423 | 1.06 | 1.05 | 1.07 | 0.651 | 0.333 | 0.961 | 0.865 | 0.791 | 0.798 | 0.334
